Measurements taken from US9963462B2 (priority 2015, dated 2018).

Columns and labels:
[1] = molecular target: SNAP-hSPR (sepiapterin reductase, SPR) (Homo sapiens, UniProt P35270); test: biochemical; type: binding; settings: terbium labelled SNAP-hSPR / SSZ labelled SNAP-EGFP; read-out: hTR-FRET IC50
[2] = tested on: BH4 levels in SK-N-BE (2) cells; test: SKN-N-BE (2) cellular assay, BH4 levels by LC-MS; type: cell-based; settings: Homo sapiens, SKNBE2, read-out: SK-N-BE(2) IC50, SK-N-BE (2) cells, BH4 levels by LC-MS

Sequence of SNAP-hSPR (sepiapterin reductase, SPR) (P35270 whole entry): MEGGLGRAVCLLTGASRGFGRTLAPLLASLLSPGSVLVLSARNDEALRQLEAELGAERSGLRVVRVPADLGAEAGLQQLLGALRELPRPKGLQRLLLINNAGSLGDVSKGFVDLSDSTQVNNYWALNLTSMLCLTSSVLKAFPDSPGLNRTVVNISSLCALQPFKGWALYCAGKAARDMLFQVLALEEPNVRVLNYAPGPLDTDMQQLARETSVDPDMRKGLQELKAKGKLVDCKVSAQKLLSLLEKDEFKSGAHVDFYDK

## Cc1c(C(=O)N2CCC(c3nc4ccc(F)cc4s3)CC2)cnn1-c1nc2c(c(=O)[nH]1)CCC2 [Q-0590]
[1]
  IC50: 3 nM
[2]
  IC50: 15 nM

## Cc1cc(=O)[nH]c(-n2ccc(C(=O)N3CCc4ccccc43)n2)n1 [Q-0376]
[1]
  IC50: 30 nM
[2]
  IC50: 8200 nM

## Cc1c(C(=O)N2CC3C(C2)C3(F)F)cnn1-c1nn2cccc2c(=O)[nH]1 (stereo not drawn) [Q-0807]
[1]
  IC50: 2 nM
[2]
  IC50: 400 nM

## Cc1c(C(=O)N2CCNCC2)cnn1-c1nc2c(c(=O)[nH]1)CCC2 [Q-0714]
[1]
  IC50: 30 nM
[2]
  IC50: 8100 nM

## Cc1c(C(=O)N(CCC#N)C2CCCCC2)cnn1-c1nc2c(c(=O)[nH]1)CCC2 [Q-0487]
[1]
  IC50: 3 nM
[2]
  IC50: 600 nM

## Cc1c(C(=O)N2C[C@H]3CN(C(=O)OC(C)(C)C)C[C@H]32)cnn1-c1nn2cccc2c(=O)[nH]1 [Q-0842]
[1]
  IC50: 2 nM
[2]
  IC50: 700 nM

## Cc1c(C(=O)N2CCC(c3nc4cc(F)ccc4s3)CC2)cnn1-c1nc2c(c(=O)[nH]1)CCC2 [Q-0587]
[1]
  IC50: 10 nM
[2]
  IC50: 21 nM

## Cc1c(C(=O)N2CCCC3(CC3)C2)cnn1-c1nn2cccc2c(=O)[nH]1 [Q-0819]
[1]
  IC50: 1 nM
[2]
  IC50: 200 nM

## N#CC1(c2ccccc2)CCN(C(=O)c2cnn(-c3nn4cccc4c(=O)[nH]3)c2)CC1 [Q-0534]
[1]
  IC50: 3 nM
[2]
  IC50: 100 nM

## Cc1c(C(=O)N2CCN(c3cccc(C(F)(F)F)c3)CC2)cnn1-c1nn2cccc2c(=O)[nH]1 [Q-0840]
[1]
  IC50: 3 nM
[2]
  IC50: 200 nM

## Cc1cc(=O)[nH]c(-n2ncc(C(=O)N3CCc4ccccc4C3)c2C(F)(F)F)n1 [Q-0342]
[1]
  IC50: 10 nM
[2]
  IC50: 2400 nM

## Cc1c(C(=O)N2CC3CN(C)CC3C2)cnn1-c1nn2cccc2c(=O)[nH]1 (stereo not drawn) [Q-0847]
[1]
  IC50: 20 nM
[2]
  IC50: 8800 nM

## Cc1c(C(=O)N2CCn3cnnc3C2)cnn1-c1nn2cccc2c(=O)[nH]1 [Q-0853]
[1]
  IC50: 30 nM
[2]
  IC50: 10000 nM

## Cc1c(C(=O)N2CCC(Cc3ccccc3)CC2)cnn1-c1nc2c(c(=O)[nH]1)CCC2 [Q-0491]
[1]
  IC50: 20 nM
[2]
  IC50: 37 nM

## Cc1c(C(=O)N2CCC(C(C)(C)C)CC2)cnn1-c1nc2ccsc2c(=O)[nH]1 [Q-0399]
[1]
  IC50: 3 nM
[2]
  IC50: 24 nM

## Cc1c(C(=O)N2CCC3(CCCN3Cc3ccccc3)C2)cnn1-c1nc2c(c(=O)[nH]1)CCC2 (stereo not drawn) [Q-0551]
[1]
  IC50: 6 nM
[2]
  IC50: 500 nM

## Cc1cc(=O)[nH]c(-n2ncc(C(=O)N3CCN(c4ccccn4)CC3)c2C)n1 [Q-0299]
[1]
  IC50: 5 nM
[2]
  IC50: 1200 nM

## Cc1cc(=O)[nH]c(-n2ncc(C(=O)N3CCc4cccnc4C3)c2C)n1 [Q-0300]
[1]
  IC50: 9 nM
[2]
  IC50: 5000 nM

## O=C(c1ccn(-c2nn3cccc3c(=O)[nH]2)c1)N1CCC(C(F)(F)F)CC1 [Q-0738]
[1]
  IC50: 1 nM
[2]
  IC50: 100 nM

## Cc1cc(=O)[nH]c(-n2ccc(C(=O)N3c4ccccc4CC3C)n2)n1 (stereo not drawn) [Q-0377]
[1]
  IC50: 40 nM
[2]
  IC50: 6300 nM

## Cc1c(C(=O)N2C[C@@H]3CN(C(=O)OC(C)(C)C)C[C@@H]32)cnn1-c1nn2cccc2c(=O)[nH]1 [Q-0857]
[1]
  IC50: 3 nM
[2]
  IC50: 800 nM

## Cc1c(C(=O)N2CCC(O)(C(F)(F)F)CC2)cnn1-c1nn2cccc2c(=O)[nH]1 [Q-0803]
[1]
  IC50: 1 nM
[2]
  IC50: 200 nM

## O=C(c1cnn(-c2nc3c(c(=O)[nH]2)CCC3)c1)N1CCC(C(F)(F)F)CC1 [Q-0526, 2-{4-[4-(trifluoromethyl)piperidine-1-carbonyl]-1H-pyrazol-1-yl}-3H,4H,5H,6H,7H-cyclopenta[d]pyrimidin-4-one]
[1]
  IC50: 3 nM
[2]
  IC50: 28 nM

## O=c1[nH]c(-c2ccc(Br)cn2)nc2c1CCC2 [Q-0465]
[1]
  IC50: 300 nM
[2]
  IC50: 150000 nM

## Cc1c(C(=O)N2CC(CNC(=O)OC(C)(C)C)C2)cnn1-c1nc2c(c(=O)[nH]1)CCC2 [Q-0568]
[1]
  IC50: 6 nM
[2]
  IC50: 200 nM

## O=C(O)c1ccnc(-c2nc3sccc3c(=O)[nH]2)c1 [Q-0566]
[1]
  IC50: 5000 nM
[2]
  IC50: 10000 nM

## COC1CCN(C(=O)c2cnn(-c3nc4c(c(=O)[nH]3)CCC4)c2C)C1 (stereo not drawn) [Q-0478]
[1]
  IC50: 6 nM
[2]
  IC50: 1400 nM
